Experimental data published in paper PMC6941952, “A homogeneous bioluminescent immunoassay to probe cellular signaling pathway regulation” (Communications Biology, 2020).
Where “and” joins values, the source holds several entries; their conditions need not be identical. Identical values can stand only once.

System: total IκBα
Assay: NanoBiT cell-based immunoassay, total IκBα in MCF-7 cells
Parameters: species or system human
Details: for Average IkB protein (%) / Raw data IkB / Subtract reagent background IkB / protein (%) IkB: MCF-7, Fig 7c; for protein (%) IkB: replicate; for IkB degradation (% compared to no IKK16), Average / IkB degradation (% compared to no IKK16) / Non-Treated/Treated / Raw data / Subtract reagent background: TNF; for IkB degradation (% compared to no IKK16), Average: average of replicates; for IkB degradation (% compared to no IKK16) / Non-Treated/Treated / Raw data / Subtract reagent background: single replicates
Protocol: Prior to NanoBiT Cell-Based Immunoassay, 50,000 cells were seeded in 160 µl of complete growth media per well of a 96-well plate and incubated overnight. […] If necessary, the cell culture media were replaced with serum-free media after the cells were stably adherent on the plate and incubated overnight. To treat cells with activators or inhibitors, medium was changed to 30 µl of medium containing inhibitors. If activation of a specific pathway is needed, the cells were stimulated with 10 µl of medium containing activators. To lyse the cells, 10 µl of lysis buffer containing 0.1% digitonin diluted in 1X immunoassay buffer with protease and phosphatase inhibitors was added and the plates were mixed vigorously for 20 min. Then, 50 µl of an antibody mix containing two primary antibodies against the target protein and NanoBiT detecting antibodies (0.3 µl each per well), diluted in 1X immunoassay buffer was added to the lysates. The plates were incubated at 23 °C for 90 min, followed by the addition of 25 µl of Nano-Glo® reagent consisting of Nano-Glo® Luciferase Assay Substrate mixed with 1X immunoassay buffer. Luminescence was measured using a plate-reading luminometer.
Single dose or dose response inhibitor treatments were performed prior to activation of the pathways as follows. For IκBα, the cells were treated in 30 µl medium with IKK16 or MG132 for 60 min before the addition of 10 µl of DMEM containing appropriate concentration of TNFα. To measure phosphorylation of AKT or STAT3, the corresponding NanoBiT immunoassays were developed with MCF-7 or A431 cells, respectively, according the same scheme used to develop the IκBα assay using the primary antibodies for AKT and STAT3 described in the reagents section. […] Treatment with LY294002 was performed in 30 µl medium and cells were incubated for 60 min before the addition of 1 µM Insulin. To measure STAT3 phosphorylation, A431 cells were incubated overnight in DMEM medium without serum. […] After addition of the stimulators, the cells were incubated for additional times as follows. IκBα phosphorylation and degradation analyses required both time courses and single time points as described in figures. […] The NanoBiT immunoassay protocol was followed as described above.
All 96-well assay plates were read using a GloMax® 96 Microplate Luminometer from Promega. The instrument was set to 0.5 s integration time. In order to obtain net change of signal, the reagent background values (signal from the well containing all reagent except primary antibodies) were subtracted from the sample values. To plot and analyze the data, Microsoft Excel and GraphPad Prism® Software were used. IC50 values were determined by using a nonlinear regression fit to a sigmoidal dose response (variable slope).

[1] = MCF-7 cells, IKK16 0.000762939 uM
[2] = MCF-7 cells, IKK16 0.00305176 uM
[3] = MCF-7 cells, IKK16 0.0488281 uM

C[C@]12CC[C@@H]3c4ccc(O)cc4C[C@@H](CCCCCCCCC[S+]([O-])CCCC(F)(F)C(F)(F)F)[C@H]3[C@@H]1CC[C@@H]2O (stereo partly shown) [Fulvestrant]
Average IkB protein (%) (Fulvestrant 0.0976562 nM, 4 h): 103.1% | Raw data IkB (Fulvestrant 0.0976562 nM, 4 h): 2320000 and 2388000 and 2321000 | Subtract reagent background IkB (Fulvestrant 0.0976562 nM, 4 h): 2160700 and 2093700 and 2092700 | protein (%) IkB (Fulvestrant 0.0976562 nM, 4 h): 102.8% and 100.3% and 106.3% | Average IkB protein (%) (Fulvestrant 0.195312 nM, 4 h): 102.8% | Raw data IkB (Fulvestrant 0.195312 nM, 4 h): 2292000 and 2388000 and 2330000 | Subtract reagent background IkB (Fulvestrant 0.195312 nM, 4 h): 2161100 and 2103100 and 2065100 | protein (%) IkB (Fulvestrant 0.195312 nM, 4 h): 102.8% and 100.7% and 104.9% | Average IkB protein (%) (Fulvestrant 0.390625 nM, 4 h): 106.4% | Raw data IkB (Fulvestrant 0.390625 nM, 4 h): 2337000 and 2479000 and 2412000 | Subtract reagent background IkB (Fulvestrant 0.390625 nM, 4 h): 2252550 and 2185550 and 2110550 | protein (%) IkB (Fulvestrant 0.390625 nM, 4 h): 107.1% and 104.7% and 107.3% | Average IkB protein (%) (Fulvestrant 0.78125 nM, 4 h): 107.7% | Raw data IkB (Fulvestrant 0.78125 nM, 4 h): 2309000 and 2550000 and 2458000 | Subtract reagent background IkB (Fulvestrant 0.78125 nM, 4 h): 2323650 and 2231650 and 2082650 | protein (%) IkB (Fulvestrant 0.78125 nM, 4 h): 110.5% and 106.9% and 105.8% | Average IkB protein (%) (Fulvestrant 1.5625 nM, 4 h): 109.4% | Raw data IkB (Fulvestrant 1.5625 nM, 4 h): 2305000 and 2596000 and 2525000 | Subtract reagent background IkB (Fulvestrant 1.5625 nM, 4 h): 2368700 and 2297700 and 2077700 | protein (%) IkB (Fulvestrant 1.5625 nM, 4 h): 110.1% and 105.6% | Average IkB protein (%) (Fulvestrant 3.125 nM, 4 h): 110.7% | Raw data IkB (Fulvestrant 3.125 nM, 4 h): 2392000 and 2556000 and 2547000 | Subtract reagent background IkB (Fulvestrant 3.125 nM, 4 h): 2330150 and 2321150 and 2166150 | protein (%) IkB (Fulvestrant 3.125 nM, 4 h): 110.8% and 111.2% and 110.1% | Average IkB protein (%) (Fulvestrant 6.25 nM, 4 h): 107.5% | Raw data IkB (Fulvestrant 6.25 nM, 4 h): 2316000 and 2499000 and 2485000 | Subtract reagent background IkB (Fulvestrant 6.25 nM, 4 h): 2273600 and 2259600 and 2090600 | protein (%) IkB (Fulvestrant 6.25 nM, 4 h): 108.1% and 108.2% and 106.2% | Average IkB protein (%) (Fulvestrant 25 nM, 4 h): 102.2% | Raw data IkB (Fulvestrant 25 nM, 4 h): 2228000 and 2399000 and 2343000 | Subtract reagent background IkB (Fulvestrant 25 nM, 4 h): 2174600 and 2118600 and 2003600 | protein (%) IkB (Fulvestrant 25 nM, 4 h): 103.4% and 101.5% and 101.8% | Average IkB protein (%) (Fulvestrant 50 nM, 4 h): 99.5% | Raw data IkB (Fulvestrant 50 nM, 4 h): 2216000 and 2302000 and 2278000 | Subtract reagent background IkB (Fulvestrant 50 nM, 4 h): 2078950 and 2054950 and 1992950 | protein (%) IkB (Fulvestrant 50 nM, 4 h): 98.9% and 98.4% and 101.3% | Average IkB protein (%) (Fulvestrant 100 nM, 4 h): 94.0% | Raw data IkB (Fulvestrant 100 nM, 4 h): 2084000 and 2146000 and 2219000 | Subtract reagent background IkB (Fulvestrant 100 nM, 4 h): 1926250 and 1999250 and 1864250 | protein (%) IkB (Fulvestrant 100 nM, 4 h): 91.6% and 95.8% and 94.7% | cytotoxicity inferred from IκBα level (MCF-7 cells, 4 h): lack of cytotoxicity | effect on IκBα protein level (MCF-7 cells, 4 h, same compound titration): did not affect

O=C(c1ccc(Nc2nccc(-c3cc4ccccc4s3)n2)cc1)N1CCC(N2CCCC2)CC1 [IKK16]
Total IkB Raw data (Figure 3a and 3b): 147500 and 141100 and 148400 | Total IkB Subtract reagent background (Figure 3a and 3b): 129800 and 128900 and 122500 | Total IkB Average (Figure 3a and 3b, background subtracted): 127067 | TNFα-induced reduction of total IκBα protein (MCF-7 cells, 10 µM 1 h, TNFα 50 ng per ml 10 min): abolished | IkB degradation (% compared to no IKK16), Average [1]: 98.1% | IkB degradation (% compared to no IKK16) [1]: 101% and 97% and 93% | Non-Treated/Treated [1]: 4.060 and 4.672 and 4.565 and 4.365 | Raw data [1]: 21820 and 22100 and 21310 and 21710 | Subtract reagent background [1]: 13931 and 13141 and 13541 and 13651 | IkB degradation (% compared to no IKK16), Average [2]: 96.3% | IkB degradation (% compared to no IKK16) [2]: 103% and 93% and 95% and 94% | Non-Treated/Treated [2]: 4.119 and 4.303 and 4.479 and 4.413 | Raw data [2]: 21670 and 21900 and 22440 and 21970 | Subtract reagent background [2]: 13731 and 14271 and 13801 and 13501 | IkB degradation (% compared to no IKK16), Average (MCF-7 cells, IKK16 0.012207 uM): 97.0% | IkB degradation (% compared to no IKK16) (MCF-7 cells, IKK16 0.012207 uM): 101% and 95% and 99% and 94% | Non-Treated/Treated (MCF-7 cells, IKK16 0.012207 uM): 4.063 and 4.367 and 4.623 and 4.410 | Raw data (MCF-7 cells, IKK16 0.012207 uM): 21680 and 22090 and 22230 and 21540 | Subtract reagent background (MCF-7 cells, IKK16 0.012207 uM): 13921 and 14061 and 13371 and 13511 | IkB degradation (% compared to no IKK16), Average [3]: 102.5% | IkB degradation (% compared to no IKK16) [3]: 101% and 107% and 103% and 99% | Non-Treated/Treated [3]: 4.060 and 4.927 and 4.840 and 4.651 | Raw data [3]: 20980 and 22100 and 20630 and 20940 | Subtract reagent background [3]: 13931 and 12461 and 12771 and 12811 | IkB degradation (% compared to no IKK16), Average (MCF-7 cells, IKK16 0.195312 uM): 98.7% | IkB degradation (% compared to no IKK16) (MCF-7 cells, IKK16 0.195312 uM): 99% and 97% and 98% and 100% | Non-Treated/Treated (MCF-7 cells, IKK16 0.195312 uM): 3.986 and 4.488 and 4.616 and 4.698 | Raw data (MCF-7 cells, IKK16 0.195312 uM): 20850 and 22360 and 21850 and 21560 | Subtract reagent background (MCF-7 cells, IKK16 0.195312 uM): 14191 and 13681 and 13391 and 12681 | IkB degradation (% compared to no IKK16), Average (MCF-7 cells, IKK16 0.78125 uM): 84.0% | IkB degradation (% compared to no IKK16) (MCF-7 cells, IKK16 0.78125 uM): 86% and 82% and 85% | Non-Treated/Treated (MCF-7 cells, IKK16 0.78125 uM): 3.457 and 3.811 and 3.985 and 3.866 | Raw data (MCF-7 cells, IKK16 0.78125 uM): 23580 and 24530 and 24280 and 23680 | Subtract reagent background (MCF-7 cells, IKK16 0.78125 uM): 16361 and 16111 and 15511 and 15411 | IkB degradation (% compared to no IKK16), Average (MCF-7 cells, IKK16 3.125 uM): 40.0% | IkB degradation (% compared to no IKK16) (MCF-7 cells, IKK16 3.125 uM): 42% and 41% and 39% and 38% | Non-Treated/Treated (MCF-7 cells, IKK16 3.125 uM): 1.686 and 1.873 and 1.836 and 1.807 | Raw data (MCF-7 cells, IKK16 3.125 uM): 41140 and 41710 and 40950 and 41840 | Subtract reagent background (MCF-7 cells, IKK16 3.125 uM): 33541 and 32781 and 33671 and 32971 | IC50 (MCF-7 cells, pretreated 1 h, then TNFα 50 ng per ml 30 min, read-out: IC50, inhibition of TNFα induced degradation of IκBα): 1440 nM
